No end group written: not given here.
Columns and labels:
[1] = system: myocardial I-R injury in C57BL/6 mice; assay: Myocardial I-R in mice: cardiac inflammation after 48 h reperfusion; assay type: in vivo, mouse; conditions: for Effect on LV injury score / cell infiltration (H&E) / Effect on LV macrophage (CD68+) signal / Effect on LV neutrophil (Ly-6B.2) signal (in words) / Reduction of LV neutrophil content (Ly-6B.2): 60 min ischaemia, 48 h reperfusion
Method: (§1) Male C57BL/6 mice were breed and housed in the AMREP Animal Centre and maintained under a 12 h light/dark cycle. After anaesthesia (i.p., ketamine 80 mg/kg, xylazine 20 mg/kg and atropine 1.2 mg/kg), mice were randomly assigned to 24 h, 48 h and 7 days reperfusion groups and underwent reversible left arterial descending (LAD) ligation as described (Gao XM, 2011; JMCC, 50; Gao XM, 2000, JMCC). Following sedation, mice were intubated and ventilated (Harvard apparatus, MA, USA) with room air mixed with oxygen (tidal volume 0.25 mL, 150 breath/min), and placed on a heating pad. A left thoractomy will be made via the ˜third intercostal space, where the beating heart was located.
(§2) The LAD was reversibly ligated using 7-0 silk suture with a slipknot enclosing two releasing rings. Regional ischaemia was confirmed by pale colour of the ligated area. Air was then evacuated from the chest, the cavity was closed and normal respiration was restored. After 40-60 min of ischaemia, blood flow through the left coronary artery was re-established by releasing the slipknot. Sham-operated mice underwent identical surgical procedures except the coronary arteries were not ligated. Three cohorts of mice were scheduled. Cohort 1 was subjected to 40 min ischaemic-24 h reperfusion for the assessment of cardiac necrosis. Cohort 2 was subjected to 60 min occlusion with 48 h reperfusion for the quantification of cardiac and systemic inflammation. The last cohort was subjected to 7 d reperfusion and early cardiac fibrosis was assessed.
(§3) Treatment with study drugs: Animals were randomly assigned to different groups and all treatments were administrated 5 min prior to reperfusion of the LAD. The peptide Ac2-26 (1 mg kg^−1) (Chemieliva, Chongqing, China) and its vehicle (10% dimethyl sulfoxide (DMSO) in saline) were intravenously (i.v.) injected via the tail vein. […] Mice then received drug or vehicle injections daily until the experimental endpoint. The two different vehicles groups reflect different study drug solubility and administration routes.
Assessment of cardiac inflammation: LV tissue embedded in OCT compound following 60 min ischaemia and 48 h reperfusion were sectioned at 6 μm for immunofluorescent analysis. Sections were pre-incubated with 4% paraformaidehyde for 20 min and 10% normal goat serum for a further 30 min. Sections were then incubated at room temperature (RT) with either CD68+ primary antibody or Ly-6B.2 primary antibody (1:200, ABD Serotec, Raleigh, USA) for 1 h, followed 30 min incubation with the Alexa Fluor 546 secondary antibody (1:200, Invitrogen, Carlsbad, USA), to detect cardiac macrophage and neutrophil infiltration, respectively. Finally, sections were incubated with 0.001% Hoechst 33342 (Invitrogen, Melbourne, Australia) for 30 min, to elicit nuclear staining. Single images were photographed using a Nikon A1R confocal microscope (Nikon Instruments Inc., NY, USA) under 20× magnification, and 9×9 single images were then automatically stitched together using NIS-Elements AR software (version 4.10 for Windows, Nikon Instruments Inc., NY, USA) to form each whole LV section. The images for infarct area were captured under 40× magnification, and the stitched images were then analysed using Fiji software (version 1.48c for Max OS X, National Institutes of Health, USA). The threshold was set for each image, to enable optimal sensing of red fluorescence intensity above threshold, and the software then automatically quantified these red fluorescent signals.
Assessment of cardiac histology and fibrosis: LV hearts fixed in NBF after 40 min ischaema and 7 d reperfusion were embedded in paraffin by the Alfred Pathology Service (Melbourne, Australia) and sectioned at 4 μm with a Leica 2135 microtome (Leica Microsystems, Wetzlar, Germany). Sections were stained with haematoxylin and eosin (H&E) for assessment of myocardial morphology, or picrosirius red (0.1%, Fluka, Bucks, Switzerland; pH2) for cardiac collagen deposition. […]

[2] = system: myocardial I-R injury in C57BL/6 mice; assay: Myocardial I-R in mice: systemic inflammation after 48 h reperfusion; assay type: in vivo, mouse
Method: as §1, §2, §3
Assessment of systemic inflammation: Blood samples collected from mice subjected to 60 min ischaemia and 48 h reperfusion were diluted 1:20 into 2% acetic acid to lyse the red blood cells for total WBC counting, using a haemocytometer. Blood smears were stained using a hemacolor staining kit (Merck millipore, Melbourne, Australia) and then examined under 60× magnification using an Olympus Biological CHS microscope (Olympus Inc., Tokyo, Japan) for manual counting of neutrophils, lymphocytes and monocytes per 100 WBCs.
Animal Surgery: Adult C57BL/6 mice were randomly assigned to myocardial ischemia-reperfusion (I-R) injury or sham in vivo. Anesthetized mice (ketamine 80 mg/kg, xylazine 20 mg/kg and atropine 1.2 mg/kg, KXA, i.p.) underwent reversible left arterial descending (LAD) ligation as described (Gao et al. 2000 & Gao et al. 2011). Following sedation, mice were intubated and ventilated (Harvard apparatus, MA, USA) with room air mixed with oxygen (tidal volume 0.25 mL, 150 breaths/min), and placed on a heating pad. A left thoractomy was be made around the third intercostal space, where the beating heart was located. The LAD was reversibly ligated using 7-0 silk suture with a slipknot enclosing two releasing rings. Regional ischemia was confirmed by pale color of the ligated area. Air was then evacuated from the chest, the cavity closed and normal respiration restored. Blood flow through the left coronary artery was subsequently re-established at the end of the ischemic period (i.e. reperfusion) by releasing the slipknot. Three distinct cohorts of mice were studied. Cohorts 1 and 2 were subjected to 40 mins ischemia with either 24 h or 7 days reperfusion, optimal timepoints for the assessment of cardiac necrosis and early cardiac remodeling in vivo, respectively. Cohort 3 was subjected to 60 mins LAD occlusion with 48 h reperfusion, for the quantification of cardiac and systemic inflammation. […]

[3] = 48 h reperfusion, listed as Cmpd17b

Row | Compound | Effect on LV injury score / cell infiltration (H&E) [1] | Effect on LV macrophage (CD68+) signal [1] | Effect on LV neutrophil (Ly-6B.2) signal (in words) ([1]; 50 mg/kg i.p., listed as Cmpd43, 50 mg/kg) | Effect on systemic inflammation / early inflammatory response 48 h post I-R ([2]; 50 mg/kg i.p.) | Effect on circulating lymphocytes ([2]; 48 h reperfusion) | Effect on circulating monocytes ([2]; 48 h reperfusion) | Effect on cardiac inflammation 48 h post I-R ([1]; 50 mg/kg i.p.) | Reduction of LV neutrophil content (Ly-6B.2) [1] | Effect on LV neutrophil (Ly-6B.2) signal (in words) ([1]; 50 mg/kg i.p.) | Cardioprotection: Inflammation ([1]; Table 9) | Effect on circulating IL-1β ([2]; 48 h reperfusion) | Effect on circulating neutrophils ([2]; 48 h reperfusion) | Effect on total circulating WBC ([2]; 48 h reperfusion) | Effect on circulating lymphocytes [2, 3] | Effect on total circulating WBC [2, 3]
1 | CC(C)C1C(NC(=O)Nc2ccc(Cl)cc2)C(=O)N(c2ccccc2)N1C (centres unmarked) [BIDI-002] | significantly attenuated | tended to be reduced | absent | not | significantly increased | significantly increased | – | – | – | – | – | – | – | – | –
2 | COc1cccc(Cc2cc(C)nn(C(C)C(=O)Nc3ccc(Br)cc3)c2=O)c1 (centres unmarked) [BIDI-001, N-(4-bromophenyl)-2-[5-(3-methoxybenzyl)-3-methyl-6-oxo-6H-pyridazin-1-yl]-propionamide] | not | tended to be reduced | – | – | tended to reduce | without affecting | reduces cardiac inflammation | ~50% | significantly attenuated the Ly-6B.2 neutrophil signal by almost half | ↓↓ | significantly blunted | absent | tended to reduce | significantly blunted | absent
3 | Ac2-26: Annexin-A1 N-terminal peptide, peptide ANX-A1 mimetic (Ac-AMVSEFLKQAWFIENEEQEYVQTVK; UniProt P04083 2-26, looked up, fragment) | significantly inhibited | non-significant trend | – | – | – | – | – | approximately 35% | – | – | – | – | did not significantly alter | – | –

Reference: patent publication US10328075B2, “Method of treatment and compounds for use therein” (Baker Heart and Diabetes Institute, priority 2015, dated 2019)
